{"source": "patent US20110183336A1", "about": "“Method to Predict Responsiveness of Breast Cancer to Polyamine-Type Chemotherapy” (THE REGENTS OF THE UNIVERSITY OF CALIFORNIA, priority 2007, published 2011)", "key": {"[1]": {"tested_on": "BT549", "assay": "Cell growth inhibition assay (Cell Titer Glo)", "format": "cell-based, human", "details": "BT549, Basal B, 72 h", "method": "(§1) Cell culture: Breast cell lines were obtained from the ATCC and from collections developed in the laboratories of Drs. Steve Ethier and Adi Gazdar.\n(§2) Cell growth inhibition assay and data analysis: Cells were plated at proper density in 96-well plates such that they would remain in log growth at the end of assay time. The cells were allowed to attach overnight before being exposed to CGC-11047 for 72 h. Drugs were dissolved in water as 100 mM stock. For the dose response study, a set of 9 doses from 5×10^−3 to 1.3×10^−8 M (final concentration) in 1:5 serial dilution were added in triplicate wells. The final DMSO concentration in the treated well was 0.3% or less. The cell growth was determined using Cell Titer Glo (CTG) assay (CellTiter-Glo Luminescent Cell Viability Assay, Promega, Madison, Wis.), with slight modification form manufacturer's protocol, at day 0 (time when drug was added) and at day 3 of drug exposure. Briefly, CTG reagent was diluted with PBS (1:1, volume: volume) and the culture media was removed from the 96-well plate prior to adding 50 μl per well of the diluted CTG reagent. Luminescence from the assay was recorded using BIO-TEK FLx800.\n(§3) Data calculations were made according to the method described by the NCI/NIH DTP Human Tumor Cell Line Screen Process (http://dtp.nci.nih.gov/branches/btb/ivclsp.html) and as described previously (Monks, A et al., JNCI 83:757-766, 1991). The percent growth curve is calculated as [(T−T0)/(C−T0)]×100, where T0 is the cell count at day 0, C is the vehicle control (e.g. 0.3% DMSO without drug) cell count at day 3, and T is the cell count at the test concentration. The GI50 and TGI value are determined as the drug concentration that results in a 50% and 0% growth at 72 h drug exposure. LC50 is calculated as [(T−T0)/T0]×100=−50, when T<T0."}, "[2]": {"tested_on": "CAMA1", "assay": "Cell growth inhibition assay (Cell Titer Glo)", "format": "cell-based, human", "details": "CAMA1, Luminal, 72 h", "method": "as §1, §2, §3"}, "[3]": {"tested_on": "HCC1428", "assay": "Cell growth inhibition assay (Cell Titer Glo)", "format": "cell-based, human", "details": "HCC1428, Luminal, 72 h", "method": "as §1, §2, §3"}, "[4]": {"tested_on": "HCC38", "assay": "Cell growth inhibition assay (Cell Titer Glo)", "format": "cell-based, human", "details": "HCC38, Basal B, 72 h", "method": "as §1, §2, §3"}, "[5]": {"tested_on": "MCF7", "assay": "Cell growth inhibition assay (Cell Titer Glo)", "format": "cell-based, human", "details": "MCF7, Luminal, 72 h", "method": "as §1, §2, §3"}, "[6]": {"tested_on": "MDAMB231", "assay": "Cell growth inhibition assay (Cell Titer Glo)", "format": "cell-based, human", "details": "MDAMB231, Basal B, 72 h", "method": "as §1, §2, §3"}, "[7]": {"tested_on": "MDAMB361", "assay": "Cell growth inhibition assay (Cell Titer Glo)", "format": "cell-based, human", "details": "MDAMB361, Luminal, 72 h", "method": "as §1, §2, §3"}, "[8]": {"tested_on": "MDAMB415", "assay": "Cell growth inhibition assay (Cell Titer Glo)", "format": "cell-based, human", "details": "MDAMB415, Luminal, 72 h", "method": "as §1, §2, §3"}, "[9]": {"tested_on": "MDAMB453", "assay": "Cell growth inhibition assay (Cell Titer Glo)", "format": "cell-based, human", "details": "MDAMB453, Luminal, 72 h", "method": "as §1, §2, §3"}, "[10]": {"tested_on": "MDAMB468", "assay": "Cell growth inhibition assay (Cell Titer Glo)", "format": "cell-based, human", "details": "MDAMB468, Basal A, 72 h", "method": "as §1, §2, §3"}, "[11]": {"tested_on": "panel of 42 breast cancer cell lines and 6 non-cancerous breast cell lines", "assay": "Cell growth inhibition assay, whole panel", "format": "cell-based", "details": "whole breast cell line panel, 72 h", "excerpt": "To better delineate the response of breast cancer cells to conformationally-restricted polyamines, we studied the anti-proliferation activity of CGC-11047 (SL-11047 or Compound 58 in Table 1) among the panel of 42 breast cancer cell lines and 6 non-cancerous breast cell lines (e.g., human mammary epithelial cells, HMEC) of known subtype (basal or luminal) with a plethora of genomic background mimicking the human breast tumors. Extensive genomic background of these cell lines have been reported by Neve et al. (2006).\nas §1\nCell growth inhibition assay and data analysis: Cells were plated at proper density in 96-well plates such that they would remain in log growth at the end of assay time. The cells were allowed to attach overnight before being exposed to CGC-11047 for 72 h. Drugs were dissolved in water as 100 mM stock. […] The cell growth was determined using Cell Titer Glo (CTG) assay (CellTiter-Glo Luminescent Cell Viability Assay, Promega, Madison, Wis.), with slight modification form manufacturer's protocol, at day 0 (time when drug was added) and at day 3 of drug exposure. […] Luminescence from the assay was recorded using BIO-TEK FLx800. […]"}, "[12]": {"tested_on": "HCC70 cells", "assay": "BrdU incorporation and cell cycle distribution", "format": "cell-based, human", "details": "select sensitive cell lines except T47D (FIG. 4: HCC70); 0.3, 10 and 300 uM; 48 and 72 hrs", "method": "(§4) FIGS. 4A and 4B. Effect of CGC-11047 on HCC70 cells with respect to cell cycle and apoptosis. In FIG. 4A, cells were treated for 72 hours with 0, 0.3, 10, or 100 μM CGC-11047. Shown are percentage of the cell population is G0-G1, S, or G2-M phase of cell growth. In FIG. 4B, cells were treated for 42, 48, or 72 hours with 0.3, 10, or 300 μM CGC-11047. Shown is the caspase activity (apoptosis) of treated cells within each condition compared to untreated controls.\nBrdU cell staining and labeling: After incubation of cells with CGC-11047 at specified concentrations for 24, 48, and 72 hours, cells were pulsed with a final BrdU concentration of 10 uM for 30 minutes. Cells were then fixed with −20° C. 70% ethanol overnight. Fixed cells were incubated with 2N HCl for 5-7 minutes to denature DNA. Cell were then rinsed with 1× PBS to neutralize HCl.\nCells were incubated with primary donkey anti-BrdU antibody (diluted 1:100 in 0.5% PBS-tween20) for 1 hour then rinsed well with 0.5% PBS-tween20. Cells were incubated with Hoechst 33642 (diluted 1:2000) and secondary anti-donkey antibody (diluted 1:500) for 45 minutes and washed well with PBS-tween. […]\n(§5) Select sensitive cell lines were treated with CGC-11047 at 0.3, 10 and 300 uM. BrdU incorporation was measured and cell cycle distribution was analyzed at 48 and 72 hrs. Apoptosis was measured using the Promega Caspase Glo 3/7 assay."}, "[13]": {"tested_on": "HCC70 cells", "assay": "Caspase Glo 3/7 assay (apoptosis)", "format": "cell-based, human", "details": "select sensitive cell lines except T47D (FIG. 4: HCC70); 0.3, 10 and 300 uM", "method": "as §4\nCaspase Glo assay: Apoptosis was measured using the Promega Caspase Glo 3/7 assay (Promega, Madison, Wis.). Lyophilized pellet was eluted in solvent to make working Caspase Glo reagent. After incubation of cells with CGC-11047 at specified concentrations for 24, 48, and 72 hours, 50 ul of Caspase Glo reagent was added to the wells. After an incubation time of 1 hour, luminescence was measured using a luminometer.\nas §5"}}, "note": "Read-outs that look alike come from different tables or passages of the source.", "data": [{"smiles": "CCNCCCNC/C=C\\CNCCCNCC", "note": "[CGC-11047]", "values": [{"measurement": "TGI", "setting": "[1]", "result": 1300, "unit": "µM"}, {"measurement": "GI50", "setting": "[1]; Homo sapiens, BT-549", "result": 1, "unit": "µM"}, {"measurement": "TGI", "setting": "[2]", "result": 1100, "unit": "µM"}, {"measurement": "GI50", "setting": "[2]; Homo sapiens, CAMA-1", "result": 350, "unit": "µM"}, {"measurement": "TGI", "setting": "[3]", "result": 300, "unit": "µM"}, {"measurement": "GI50", "setting": "[3]; Homo sapiens", "result": 1, "unit": "µM"}, {"measurement": "TGI", "setting": "[4]", "result": 300, "unit": "µM"}, {"measurement": "GI50", "setting": "[4]; Homo sapiens", "result": 40, "unit": "µM"}, {"measurement": "GI50", "setting": "[5]; Homo sapiens", "result": 90, "unit": "µM"}, {"measurement": "TGI", "setting": "[5]", "result": 1200, "unit": "µM"}, {"measurement": "GI50", "setting": "[6]; Homo sapiens, MDA-MB-231", "result": 2000, "unit": "µM"}, {"measurement": "TGI", "setting": "[6]", "result": ">5000", "unit": "µM"}, {"measurement": "GI50", "setting": "[7]; Homo sapiens, MDA-MB-361", "result": 600, "unit": "µM"}, {"measurement": "TGI", "setting": "[7]", "result": 2000, "unit": "µM"}, {"measurement": "GI50", "setting": "[8]; Homo sapiens, MDA-MB-415", "result": 20, "unit": "µM"}, {"measurement": "TGI", "setting": "[8]", "result": 100, "unit": "µM"}, {"measurement": "GI50", "setting": "[9]; Homo sapiens, MDA-MB-453", "result": 500, "unit": "µM"}, {"measurement": "TGI", "setting": "[9]", "result": ">500", "unit": "µM"}, {"measurement": "GI50", "setting": "[10]; Homo sapiens, MDA-MB-468", "result": 0.5, "unit": "µM"}, {"measurement": "TGI", "setting": "[10]", "result": 2000, "unit": "µM"}, {"measurement": "GI50", "setting": "[11]; Homo sapiens, read-out: median GI50", "result": "~40", "unit": "µM"}, {"measurement": "GI50", "setting": "[11]; units given in the value, read-out: GI50 range of the cell lines tested", "result": "0.4 to 5000", "unit": "µM"}, {"measurement": "cell cycle distribution / BrdU incorporation", "setting": "[12]", "result": "growth inhibition is mainly caused by the delay in cell cycle, a G1 arrest"}, {"measurement": "apoptosis (caspase 3/7 activity)", "setting": "[13]", "result": "very little apoptosis detected"}]}]}
